This note sets out measurements from US20110039770A1, “INHIBITORS OF PROTEIN KINASE C ISOFORMS AND USES THEREOF” (PHARMAGAP INC., priority 2005, published 2011).

Where a SMILES comes first, the peptide text is derived from it. [ ]: non-standard residue; d: D form.

The target of assay [1] is T1, PKC-ε (Homo sapiens, UniProt Q02156).
T1 sequence (Q02156 1-737): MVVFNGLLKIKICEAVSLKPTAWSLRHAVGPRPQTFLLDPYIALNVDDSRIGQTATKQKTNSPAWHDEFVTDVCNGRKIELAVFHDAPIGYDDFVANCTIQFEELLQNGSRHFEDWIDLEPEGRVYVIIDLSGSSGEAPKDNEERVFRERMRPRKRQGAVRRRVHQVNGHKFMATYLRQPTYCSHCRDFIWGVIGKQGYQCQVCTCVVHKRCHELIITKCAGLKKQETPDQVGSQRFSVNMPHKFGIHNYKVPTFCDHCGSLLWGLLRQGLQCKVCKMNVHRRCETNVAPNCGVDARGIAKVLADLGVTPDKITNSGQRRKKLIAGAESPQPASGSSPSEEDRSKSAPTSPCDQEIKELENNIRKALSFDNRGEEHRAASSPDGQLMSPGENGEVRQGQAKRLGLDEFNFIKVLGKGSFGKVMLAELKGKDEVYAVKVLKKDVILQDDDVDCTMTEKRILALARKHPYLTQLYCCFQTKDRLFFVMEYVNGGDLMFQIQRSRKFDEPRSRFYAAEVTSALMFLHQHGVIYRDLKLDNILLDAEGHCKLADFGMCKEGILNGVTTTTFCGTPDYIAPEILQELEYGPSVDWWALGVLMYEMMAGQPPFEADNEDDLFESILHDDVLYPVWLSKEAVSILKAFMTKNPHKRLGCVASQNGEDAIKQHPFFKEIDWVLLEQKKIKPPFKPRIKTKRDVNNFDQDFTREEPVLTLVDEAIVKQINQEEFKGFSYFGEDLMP
Description: Competitive binding assay using cell extracts (Western blot). To be noted: Cell extract; PRE 10X or 20X antibody concentration. More on the design: cytoplasmic extracts from different cell lines expressing appropriate PKC isoforms; endogenous in cells; host or cells: CCD16Lu, LnCAP, Du145, MDAMB231, LS180; key: —: no detectable affinity; Low to very low affinity at 10X or 20X or both PRE concentrations in at least one cell line in the cell extract assay; Low affinity in purified isoform assay.; Moderate affinity at 10X or 20X or both PRE concentrations in at least one cell line in the cell extract assay.; High affinity at 10X or 20X or both PRE concentrations in at least one cell line in the cell extract assay; High affinity in purified isoform assay. The procedure:
Binding efficiency and specificity of the peptides PRE 2, 3, 4, 5, 6, 7, 8, 9, 10, 11, 12 and 13 (see Table 4) was also tested using cytoplasmic extracts from different cell lines expressing appropriate PKC isoforms as described for Example 1. Briefly, the protein cytoplasmic extracts were separated by electrophoresis and transferred onto nitrocellulose membranes by standard Western blotting procedures. The bands on the Western blots were detected with matching primary antibodies and alkaline phosphatase conjugated secondary antibody. The bands were then scanned and the relative density measurements obtained.
This procedure to assess the binding characteristics of the PREs is based on competition binding of the PRE with the primary anti-isoform PKC specific antibodies. The lower the measured band density, the greater the binding of the PRE to the PKC isoform. The PREs were added at 10 and 20 times (10×, 20×) the primary antibody concentration, according to classical competition between antigenic peptide and primary antibody. The following cell lines (obtained from the ATCC) were used: H661—NCI human lung carcinoma NSCLC; MDAMB231—human highly invasive breast cancer cell line from pleural effusion; LS180—human colon adenocarcinoma; LnCAP—human prostate adenocarcinoma; CCD16Lu—human lung fibroblasts; Du145—human prostate carcinoma brain metastasis, and T24—human bladder carcinoma.
In these cases, the 20× band density figures relative to control and 10× values were reliable.
(In western blotting, separated proteins are transferred to a membrane and probed.)

In assay [2] the target is PKC-βI (Homo sapiens, UniProt P05771). The assay can be described thus: Competition of PRE with PKC-βI antibody binding, Protocol B, IMR-32. More on the design: PKC-βII by PRE 3 and PRE 4 in IMR-32 Neuroblastoma; endogenous in cells; host or cells: IMR-32 human neuroblastoma cells. To be noted: for Band Intensity: Protocol B (control 170.5). The procedure:
(§1) The ability of the peptides PRE 2 and PRE 3 (see Table 4) to interfere with the binding of a PKC-α-specific polyclonal antibody (Santa Cruz Biotechnology, Inc.) to PKC-α was determined using a modified version of the protocol outlined above in which the test peptide was added directly to the cell extract prior to electrophoresis at a concentration of either 5× or 15× the concentration of the protein applied to each well of the gel for the Western blots (20 μg).
(§2) Peptides PRE 3 and PRE 4 (see Table 4) were tested for their ability to interfere with the binding of isoform-specific polyclonal antibodies (Santa Cruz Biotechnology, Inc.) to PKC-α, PKC-βI or PKC-βII using the general protocol described in Example 3.

Assay [3] concerns the target PKC-βII (Homo sapiens, UniProt P05771). Description: Competition of PRE with PKC-βII antibody binding, Protocol B, IMR-32. To be noted: Protocol B (control 98.6). More on the design: PKC-βII by PRE 3 and PRE 4 in IMR-32 Neuroblastoma; endogenous in cells; host or cells: IMR-32 human neuroblastoma cells. The procedure:
as §1, §2

Chain of PKC-βII (P05771 1-673 isoform P05771-2): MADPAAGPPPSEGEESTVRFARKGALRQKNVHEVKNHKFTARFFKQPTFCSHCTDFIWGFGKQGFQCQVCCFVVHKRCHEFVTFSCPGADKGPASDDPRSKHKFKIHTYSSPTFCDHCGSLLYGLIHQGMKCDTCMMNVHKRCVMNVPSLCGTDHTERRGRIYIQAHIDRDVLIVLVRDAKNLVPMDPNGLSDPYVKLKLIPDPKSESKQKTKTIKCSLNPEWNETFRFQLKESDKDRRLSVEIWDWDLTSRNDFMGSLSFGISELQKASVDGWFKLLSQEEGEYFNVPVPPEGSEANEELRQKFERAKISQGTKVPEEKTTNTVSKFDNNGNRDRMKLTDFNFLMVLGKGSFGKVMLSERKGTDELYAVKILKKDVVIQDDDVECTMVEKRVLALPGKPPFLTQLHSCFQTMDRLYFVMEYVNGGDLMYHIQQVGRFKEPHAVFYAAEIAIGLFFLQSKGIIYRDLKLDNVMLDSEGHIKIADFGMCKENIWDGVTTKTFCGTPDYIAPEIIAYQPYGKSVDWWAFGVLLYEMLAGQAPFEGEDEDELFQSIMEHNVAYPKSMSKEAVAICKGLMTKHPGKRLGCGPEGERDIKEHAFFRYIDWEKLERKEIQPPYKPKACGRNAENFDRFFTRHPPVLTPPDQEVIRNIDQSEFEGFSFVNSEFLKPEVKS
Chain of PKC-βI (P05771 whole entry): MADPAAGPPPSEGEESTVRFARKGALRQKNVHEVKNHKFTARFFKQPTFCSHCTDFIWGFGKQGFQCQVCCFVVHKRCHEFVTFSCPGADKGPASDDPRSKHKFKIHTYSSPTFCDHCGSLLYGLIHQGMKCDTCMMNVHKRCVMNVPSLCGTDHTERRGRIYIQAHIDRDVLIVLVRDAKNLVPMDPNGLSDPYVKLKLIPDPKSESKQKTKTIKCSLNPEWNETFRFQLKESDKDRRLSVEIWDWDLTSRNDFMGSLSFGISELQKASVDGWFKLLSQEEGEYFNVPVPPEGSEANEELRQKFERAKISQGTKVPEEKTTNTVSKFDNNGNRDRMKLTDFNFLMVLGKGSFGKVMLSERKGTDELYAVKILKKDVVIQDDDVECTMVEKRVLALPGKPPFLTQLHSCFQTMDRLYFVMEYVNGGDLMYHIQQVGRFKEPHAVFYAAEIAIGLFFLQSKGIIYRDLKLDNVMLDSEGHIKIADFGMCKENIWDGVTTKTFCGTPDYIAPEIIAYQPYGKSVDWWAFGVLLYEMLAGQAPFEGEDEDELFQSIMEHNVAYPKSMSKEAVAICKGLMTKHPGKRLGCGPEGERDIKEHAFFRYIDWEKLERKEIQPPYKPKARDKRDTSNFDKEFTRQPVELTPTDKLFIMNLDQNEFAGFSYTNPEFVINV

Consider `CC[C@H](C)[C@H](NC(=O)[C@H](CO)NC(=O)[C@@H](NC(=O)CNC(=O)[C@@H](NC(=O)[C@H](CC(C)C)NC(=O)[C@H](CC(N)=O)NC(=O)[C@H](CCC(N)=O)NC(=O)[C@H](C)NC(=O)[C@H](CC(=O)O)NC(=O)CNC(=O)CNC(=O)[C@H](CCCCN)NC(=O)[C@@H](NC(=O)[C@H](CCC(=O)O)NC(=O)[C@H](CCC(N)=O)NC(=O)[C@@H](NC(=O)CNC(=O)[C@H](CCCCN)NC(=O)[C@H](C)NC(C)=O)[C@@H](C)CC)C(C)C)[C@@H](C)CC)[C@@H](C)CC)C(N)=O` [PRE 3] (Ac-AKGIQEVKGGDAQNLIGISI-NH2), for which the “Affinity for PKC isoform ε” value in assay [1] is “L”. Moreover, the “Band Intensity” value in assay [2] (100 μg), in assay [2] (200 μg), in assay [2] (300 μg), in assay [3] (100 μg), in assay [3] (200 μg) and in assay [3] (300 μg) was 0.0 in each case. Also, in assay [2] (200 μg, Protocol B), the “Relative Intensity (%)” value is 0.0%.
For `CC[C@H](C)[C@H](NC(=O)[C@H](CO)NC(=O)[C@@H](NC(=O)CNC(=O)[C@@H](NC(=O)[C@H](CC(C)C)NC(=O)[C@H](CC(N)=O)NC(=O)[C@H](CCC(N)=O)NC(=O)[C@H](C)NC(=O)[C@H](CC(=O)O)NC(=O)[C@H](CCCCN)NC(C)=O)[C@@H](C)CC)[C@@H](C)CC)C(N)=O` [PRE 4, Ac-KDAQNLIGISI-NH2] (Ac-KDAQNLIGISI-NH2), in assay [1], the “Affinity for PKC isoform ε” value was “H/L”. The “Band Intensity” value in assay [2] (100 μg) came to 112.5; in assay [2] (200 μg) it was 0.0; in assay [2] (300 μg), 0.0; in assay [3] (100 μg) it was 69.58; in assay [3] (200 μg), 0.0; in assay [3] (300 μg) it was 0.0.
For the molecule `CC[C@H](C)[C@H](NC(=O)[C@H](CO)NC(=O)[C@@H](NC(=O)CNC(=O)[C@@H](NC(=O)[C@H](CC(C)C)NC(=O)[C@H](CC(N)=O)NC(=O)[C@H](CCC(N)=O)NC(=O)[C@H](C)NC(=O)[C@H](CC(=O)O)NC(=O)[C@H](CCCCN)NC(=O)CNC(=O)CNC(=O)[C@H](CCCCN)NC(=O)[C@@H](NC(=O)[C@H](CCC(=O)O)NC(=O)[C@H](CCC(N)=O)NC(=O)[C@@H](NC(=O)CNC(=O)[C@H](CCCCN)NC(=O)[C@H](C)NC(C)=O)[C@@H](C)CC)C(C)C)[C@@H](C)CC)[C@@H](C)CC)C(N)=O` [PRE 5] (Ac-AKGIQEVKGGKDAQNLIGISI-NH2), the “Affinity for PKC isoform ε” value in assay [1] is on record as “L”.
Regarding Ac-ISIGILNQADK-NH2 [PRE 10], in assay [1], the “Affinity for PKC isoform ε” value is recorded as “M/L”.
As for “Ac-ISIGILQNADK-NH2 (not fully specified; printed as Ac-ISIGILQNADK-NH2) [PRE 7]”, the “Affinity for PKC isoform ε” value in assay [1] is given as “—”.
Still for that read-out and setting: next, Ac-KDANQLIGISI-NH2 [PRE 6]: “M”; Ac-KDAQNLI-NH2 [PRE 12]: “—”.
On the same count and under the same terms, next, Ac-RDAQNLI-NH2 [PRE 13]: “—”; Ac-RDAQNLIGISI-NH2 [PRE 11]: “—”; “Ac-isigilqnadk-NH2 (Ac-[dI][dS][dI]G[dI][dL][dQ][dN][dA][dD][dK]-NH2; SMILES CC[C@@H](C)[C@@H](NC(C)=O)C(=O)N[C@H](CO)C(=O)N[C@@H](C(=O)NCC(=O)N[C@@H](C(=O)N[C@H](CC(C)C)C(=O)N[C@H](CCC(N)=O)C(=O)N[C@H](CC(N)=O)C(=O)N[C@H](C)C(=O)N[C@H](CC(=O)O)C(=O)N[C@H](CCCCN)C(N)=O)[C@H](C)CC)[C@H](C)CC) [PRE 9]”: “M/L”.
For the molecule ILEDKGGDAQNLIGISI [PRE 8], in assay [1], the “Affinity for PKC isoform ε” value is “L”.
